Results as given in patent US11524082B2, “FBSA-based therapeutic and radioimaging conjugates targeting carbonic anhydrase positive cancers” (priority 2017, dated 2022).

How the values were obtained:
A549 xenografts = tested on: A549 xenografts; parameters: species or system mice; settings: in vivo
Method: (§1) Whole-Body Imaging and Biodistribution of Radiolabeled 17 in Mouse Xenograft Models
(§2) SKRC52, HT29, or A549 cells (˜3×10^6 cells per mouse) were injected subcutaneously into the shoulders of female athymic nu/nu mice. Growth of the tumors was measured in two perpendicular directions and the volumes of the tumors were calculated as 0.5×L×W^2 (L=longest axis and W=axis perpendicular to L in millimeters). Once tumors reached a minimum of 500 mm^3 in volume, animals were injected with radiolabeled Conjugate 17 (250 μCi) in PBS (100 μL, pH 7.4) via tail vein injection. To obtain whole-body images, mice were anesthetized with isoflurane and images were acquired with a Kodak Imaging Station (In-Vivo FX, Eastman Kodak Company) in combination with CCD camera and Kodak molecular imaging software (version 4.0) with the kidneys shielded. Radioimages were acquired using the following parameters: radio isotope illumination source, 3 min acquisition time, f-stop=4, focal plane=5, FOV=160, binning=8. White light images were acquired using the following parameters: white light transillumination illumination source, 0.175 s acquisition time, f-stop=16, focal plane=5, FOV=160, and no binning. After acquiring the whole-body imaging, the mice were sacrificed with CO2 asphyxiation and, following necropsy, the tissues were placed into preweighed γ-counter tubes. The radioactivity of the tissues and a fraction of the injected dose was measured in a γ-counter (Packard, Packard Instrument Company). Count per minute (CPM) values were corrected for decay times, and the results were calculated as percent of the injected dose per gram (% ID/g) of wet tissue.
250 μCi of radiolabeled Conjugate 17 was injected into the tail vein of mice bearing xenografts derived from the A549 cell line. At various time points shown in Table 3, the tissues were removed from the mice (n=1 per time point), weighed, and the radioactivity was quantified on a gamma counter. Because copper-64 emits gamma radiation at 511 keV in 36% abundance, it is possible to use gamma detection methods.

HT29 xenografts = tested on: HT29 xenografts; parameters: species or system mice; settings: in vivo
Method: as §1, §2

SKRC52 xenografts = tested on: SKRC52 xenografts; parameters: species or system mice; settings: mouse, in vivo
Method: as §1, §2

SKRC52 cells = experiment: Fluorescent confocal microscopy of FBSA-PEG2-FITC conjugate in SKRC52 cells; type: cell-based, Human; settings: 25 nM conjugate, 1 hour at 37° C.; competition with 100-fold excess Compound 3; FIG. 1
Method: Fluorescent Microscopy of FBSA-PEG2-FITC Conjugate, Conjugate 5.
Metastatic Human Renal Cell Carcinoma (SKRC52) cells (10^5) were seeded into chambered coverglass plates and allowed to grow to confluence over 24 hours (hr). Spent medium was replaced with 0.5 mL of fresh medium containing 10% fetal bovine serum albumin and 25 nM concentration of the FITC conjugate, Conjugate 5, alone or the dye conjugate plus 100-fold excess CAIX inhibitor (Compound 3, 3-((2-(cyclooctylamino)-3,5,6-trifluoro-4-sulfamoylphenyl)sulfonyl)propanoic acid). After incubation for 1 hour at 37° C., cells were rinsed twice with 1 mL of media to remove unbound fluorescence and 0.5 ml of fresh incubation medium was added to the wells. Images were acquired using a confocal microscopy (FV 1000, Olympus).

CAIX [1] = molecular target: T1, CAIX (Homo sapiens, UniProt Q16790); experiment: Binding affinity of CAIX FITC conjugates by flow cytometry in HT-29 cells; parameters: expressed in transfected cells; settings: FIG. 4
Method: (§3) General Procedure for Binding Affinity Determination of CAIX FITC Conjugates
(§4) HEK293 transfected with CAIX, SKRC52, HT29, or A549 cells (0.25×10^6) were placed into 1.5 ml centrifuge tubes with 0.3 mL of fresh DMEM medium containing increasing concentrations of CAIX FITC conjugates in the presence or absence of 100-fold excess CAIX inhibitor (Compound 3, 3-((2-(cyclooctylamino)-3,5,6-trifluoro-4-sulfamoylphenyl)sulfonyl)propanoic acid. After incubating for 1 h at 25° C., cells were rinsed twice with 1 mL of medium. The cells were transferred into a 96-well plate and the mean florescence intensity (MFI) was read using flow cytometry (BD Accuri C6, BD Biosciences). Apparent KD was calculated by plotting MFI versus the concentration of the FITC conjugates using GraphPad Prism 4. For hypoxia experiments, cells were incubated under an atmosphere containing 1% oxygen, 5% carbon dioxide, and 94% nitrogen for 24-48 hours in a hypoxia chamber.

CAIX [2] = molecular target: T1, CAIX; experiment: Binding affinity of CAIX FITC conjugates by flow cytometry in A549 cells; parameters: expressed in transfected cells; settings: FIG. 7
Method: as §3, §4

CAIX [3] = molecular target: T1, CAIX; experiment: Binding affinity of CAIX FITC conjugates by flow cytometry in SKRC52 cells; parameters: endogenous in cells; host or cells: SKRC52
Excerpt: as §3

CAIX [4] = molecular target: T1, CAIX; experiment: Binding affinity of CAIX FITC conjugates by flow cytometry in HEK293 transfected with CAIX; parameters: expressed in transfected cells; host or cells: HEK293
Excerpt: as §3

CAIX [5] = molecular target: T1, CAIX; experiment: In vitro binding affinity of radiolabeled Conjugate 17 in A549 cells (gamma counting); parameters: expressed in transfected cells; settings: 64Cu-radiolabeled, 1 h at 25° C., FIG. 10
Method: (§5) In Vitro Binding Affinity of Radiolabeled Conjugate 17
(§6) SKRC52, HT29, A549 cells (˜0.25×10^6) were seeded in a 24-well plate and allowed to grow overnight. Fresh medium containing increasing concentrations of radiolabeled Conjugate 17, as prepared in Example 17, in the presence or absence of 100-fold excess FBSA competition compound was added. All concentrations were examined in duplicate or triplicate. After incubating for 1 h at 25° C., cells were washed with PBS (3×0.5 mL). To each well was added 0.5 M NaOH. After 10 min, 0.45 mL of the NaOH was removed and the radioactivity was measured with a γ-counter (Packard, Packard Instrument Company). The apparent binding affinity was calculated by plotting the bound radioactivity versus the concentration of the radiolabeled conjugate with GraphPad Prism 4.

CAIX [6] = molecular target: T1, CAIX; experiment: In vitro binding affinity of radiolabeled Conjugate 17 in SKRC52 cells (gamma counting); parameters: endogenous in cells; host or cells: SKRC52
Method: as §5, §6

NS(=O)(=O)c1c(F)c(F)c(S(=O)(=O)CCC(=O)NCCOCCOCCC(=O)NCCNC(=O)CCC(C(=O)O)N2CCN(CC(=O)O)CCN(CC(=O)O)CC2)c(NC2CCCCCCC2)c1F (stereo not shown) (64Cu complex, metal not drawn) [radiolabeled Conjugate 17]
radiation count at the tumor site, competition mouse versus non-competition mouse (A549 xenografts): much lower radiation count at the tumor site | tumor uptake in whole-body image, targeted versus competition mouse (A549 xenografts): much higher tumor uptake than that of the competition mouse | time of the highest tumor-to-tissue ratio (A549 xenografts; mouse): nine | tumor uptake in whole-body image, targeted versus competition mouse (HT29 xenografts): also demonstrated in mice bearing HT29 xenografts | tumor to tissue background ratios (HT29 xenografts; mouse): not very good | radioactivity at the tumor, with competition control (SKRC52 xenografts): the radioactivity at the tumor was receptor mediated | uptake of removed tumors, targeted versus competition (SKRC52 xenografts): higher tumor uptake in the targeted mouse versus the competition mice

NS(=O)(=O)c1c(F)c(F)c(S(=O)(=O)CCC(=O)NCCOCCOCCC(=O)NC(CSC2CC(=O)N(c3ccc(-c4c5ccc(=O)cc-5oc5cc(O)ccc45)c(C(=O)O)c3)C2=O)C(=O)O)c(NC2CCCCCCC2)c1F (stereo not shown) [Conjugate 5, 2-(((1-(3-carboxy-4-(6-hydroxy-3-oxo-3H-xanthen-9-yl)phenyl)-2,5-dioxopyrrolidin-3-yl)thio)methyl)-16-((2-(cyclooctylamino)-3,5,6-trifluoro-4-sulfamoylphenyl)sulfonyl)-4,14-dioxo-7,10-dioxa-3,13-diazahexadecanoic acid]
cell binding by confocal microscopy, alone and with excess CAIX inhibitor (SKRC52 cells): bound the cells and were competed in the presence of excess unconjugated inhibitor | binding with competition by unconjugated inhibitor (CAIX [1]; 100-fold excess unconjugated inhibitor (Compound 3)): bound the cells and competed in the presence of 100-fold excess unconjugated inhibitor | Kd (CAIX [1]): 4.55 nM | Kd (CAIX [2]): 6.04 nM | Kd (CAIX [3]; SKRC52 cells under hypoxia (1% oxygen, 24-48 hours), FIG. 6, read-out: KD, Hypoxia SKRC52): 4.72 nM | Kd (CAIX [3]; SKRC52 cells without hypoxia, FIG. 6, read-out: binding affinity, Normoxia SKRC52): 4.57 nM | Kd (CAIX [3]; SKRC52 cells, FIG. 3, apparent KD from MFI, 1 h at 25° C., read-out: KD): 1.28 nM | Kd (CAIX [4]; HEK293-CA9 cells, FIG. 2 / FIG. 5, apparent KD from MFI, 1 h at 25° C., read-out: KD): 17.9 nM

N[C@@H](CNC(=O)CCOCCOCCOCCOCCNC(=O)CCS(=O)(=O)c1c(F)c(F)c(S(N)(=O)=O)c(F)c1NC1CCCCCCC1)C(=O)N[C@@H](CC(=O)O)C(=O)N[C@@H](CSC1CC(=O)N(c2ccc(-c3c4ccc(=O)cc-4oc4cc(O)ccc34)c(C(=O)O)c2)C1=O)C(=O)O (stereo partly drawn) [Conjugate 7, 5-(3-(((2R,5S,8S)-8-amino-2-carboxy-5-(carboxymethyl)-29-((2-(cyclooctylamino)-3,5,6-trifluoro-4-sulfamoylphenyl)sulfonyl)-4,7,11,27-tetraoxo-14,17,20,23-tetraoxa-3,6,10,26-tetraazanonacosyl)thio)-2,5-dioxopyrrolidin-1-yl)-2-(6-hydroxy-3-oxo-3H-xanthen-9-yl)benzoic acid]
Kd (CAIX [3]): 4.57 nM | Kd (CAIX [4]): 55.2 nM | binding with competition by unconjugated inhibitor (CAIX [4]; HEK293-CA9 cells, 100-fold excess unconjugated inhibitor (Compound 3), FIG. 5): bound the cells and competed in the presence of 100-fold excess unconjugated inhibitor

NS(=O)(=O)c1c(F)c(F)c(S(=O)(=O)CCC(=O)NCCOCCOCCC(=O)NCCNC(=O)CCC(C(=O)O)N2CCN(CC(=O)O)CCN(CC(=O)O)CC2)c(NC2CCCCCCC2)c1F (stereo not shown) [radiolabeled Conjugate 17]
Kd (CAIX [5]): 6.04 nM | bound radioactivity in competition controls (CAIX [6]; SKRC52 and A549 cells, 100-fold excess of unlabeled FBSA-COOH): significantly less bound radioactivity | concentration reaching saturation of binding (CAIX [6]; SKRC52 and A549 cells, FIGS. 9 and 10): approximately 75 nM | Kd (CAIX [6]; SKRC52 cells, 64Cu-radiolabeled, 1 h at 25° C., FIG. 9): 5.87 nM
